From US6897065B1, “Method for maturation of conifer somatic embryos” (Woody Plant Biotech APS, priority 1999, dated 2005)

Columns and labels:
[1] = test system: Abies nordmanniana cell lines; experiment: Maturation of Abies nordmanniana cell lines with different carbohydrate sources (shift from maltose to sucrose); assay type: cell-based; conditions: for development of mature embryos: 45 g/L as sole carbohydrate source during the entire maturation period (treatments A, B)
Experimental: Except from the carbohydrates, the basic maturation medium was composed as described for the control in example 1. However, PCIB was included in a prior determined optimum concentration and period for each of the tested cell lines. Four treatments with different combinations of carbohydrates were tested during maturation: • A) Maturation on culture medium comprising 45 g/L sucrose as carbohydrate source during the entire maturation period. • B) Maturation on culture medium comprising 45 g/L maltose as carbohydrate source during the entire maturation period. Typical embryo from the treatment is disclosed in the left picture of FIG. 9. • C) Maturation on culture medium with 45 g/L maltose during the first part of the maturation period, followed by a shift to maturation medium comprising 22.5 g/L sucrose and 22.5 g/L maltose during the last two weeks of the maturation period. Typical embryo from the treatment is disclosed in the right picture of FIG. 9. • D) Maturation on culture medium with 45 g/L maltose during the first part of the maturation period, followed by a shift to maturation medium comprising 45 g/L sucrose as carbohydrate source for the last two weeks of the maturation period. Typical embryo from the treatment is disclosed in the center picture of FIG. 9. Results

[2] = test system: embryogenic cell lines of Abies nordmanniana; experiment: Maturation of the tested established Abies nordmanniana embryogenic cell lines (G.3.8, G.35.8, G.78.14); assay type: cell-based
Source text: (§1) Three different cell lines of Abies nordmanniana were used in the present study. The tested cell lines have been in continuous culture for several years. The cell line G.3.8 was initiated from an immature zygotic embryo in 1989 on half strength MS medium (Murashige and Skoog, 1962) as described previously (Nørgaard and Krogstrup, 1991), Cell line G.35.8 was initiated from a mature zygotic embryo on SH medium in 1991 (Nørgaard and Krogstrup, 1995), and cell line G.78.14 was initiated in 1993 from an immature zygotic embryo on modified half strength BLG medium (Verhagen and Wann, 1989). From 1996, all cultures were maintained by biweekly subculture onto fresh half strength modified BLG medium and grown at 24+/−1° C. in the dark. Cell lines G.3.8 and G.78.14 proliferated fast on maintenance medium with a doubling time of the weight shorter than 2 weeks. Cell line G.35.8 proliferated relatively slowly with a doubling time of the weight higher than 2 weeks.
(§2) The standard maturation medium (the control) is modified from the half strength BLG proliferation medium mentioned above. […] The choice of these three culture medium components is determined primarily by the conifer species in question. […] Similarly it is known that addition of PEG-4000 improves maturation. Still it may be possible to obtain just as good results with other combinations of these components and also by using other components with equivalent effects.
(§3) In this experiment, the standard maturation medium was modified by excluding PEG and by including one of the following 3 chemicals, that are traditionally expected to affect the endogenous concentration of the naturally occurring auxin IAA or to affect the normal effect of auxin in plant cells: 1) PCIB (auxin-antagonist) in a concentration of 25 or 117 μM, 2) TIBA (auxin transport inhibitor) in a concentration of 5 or 50 μM, 3) phlouroglucinol: (inhibitor of auxin degradation) (see George 1993, page 429 bottom-430) in a concentration of 30 mM. In addition to these modifications the standard maturation medium was modified by: 4) reducing the concentration of boron (precursor of indole acetic acid synthesis) to 10 μM, i.e. 20% of the normal concentration and finally by 5) including 25 μM PCIB in medium with no ABA.
(§4) The cultures were matured in the dark at 24° C.+/−1° C.
Two weeks after the last subculture, 4 grams of embryogenic cells was transferred to a 250 mL Flask (Blue cap) together with a magnet stirrer. 100 mL of liquid proliferation medium was added, and the suspension was stirred for 5 minutes at high speed on a magnet stirrer to obtain a homogenous suspension of cells and cell clumps. The culture was then pre-cultured on a gyrotory shaker (120 rpm) for one week at 24+/−1° C. in the dark. Following the pre-culture, the culture was stirred again on a magnet stirrer at high speed for 5 minutes. The culture was transferred to a 100 mL measuring cylinder and allowed to settle for 30 min. The supernatant was discharged and from the remaining culture aliquots of 1 mL were transferred with a cut pipette tip onto filter paper (Whatmann #2) placed on 25 mL of maturation medium in 10 cm Petri dishes (Nunc, Denmark). The filters containing the maturing somatic cultures were transferred onto fresh medium every 2 weeks.
FIG. 5 discloses maturation of cell line G.78.14. This cell line proliferates rapidly and produces very few normal mature embryos according to prior methods. The cell line was matured for 20 weeks on medium comprising 40 μM ABA and a) 25 μM PCIB, b) 0.4 mM phloroglucinol, or c) reduced concentration of Boron (20% of normal concentration). For control see FIG. 1a or 2a.
FIG. 6 discloses maturation of cell line G.78.14 for 20 weeks on maturation medium comprising 40 μM ABA and a) 2.5 mg/L TIBA (5 μM), or b) 25 mg/L TIBA (50 μM).

[3] = test system: Picea abies embryogenic cell lines D.2.9, D.4.1, D.7.1; experiment: Maturation in embryogenic cultures of Picea abies; assay type: cell-based
Experimental: Three embryogenic cell lines, D.2.9, D.4.1, D.7.1, of Picea abies, initiated from immature seeds in 1989 and kept in cryostorage until 1998 as described by Nørgaard et al (1993) were used for the present experiment. The cultures were maintained on semi-solid proliferation medium BMI-S1 (Krogstrup 1986) gelled with 1.8 g/L gelrite by biweekly sub-cultures. Prior to transfer to maturation medium, 4 grams of cell mass from each cell line was weighed off and transferred to 50 ml liquid proliferation medium in a 250 ml Erlenmeyer flask. The flask also contained a sterile magnet.
To disintegrate the cultures they were stirred for 5 minutes using a magnet stirrer. Then the flasks were shaken for 15 minutes on a rotary shaker at 175 rpm. The medium with suspended cell aggregates were subsequently poured into a 100 ml measuring cylinder and allowed to settle for 30 minutes. The supernatant was discarded and aliquots of 1 ml of cells were plated on sterile Whatman #54 paper discs placed an the various maturation media. Three replicate dishes were made for each combination of cell line and treatment.
Five maturation protocols were tested. • A: Maturation on BMG-1 medium (Krogstrup et al 1988) modified by increasing the ABA concentration to 40 μM. • B: As A, but from week 2 to week 4 maturation on culture medium comprising 2.5 μM PCIB and 40 μM ABA. • C: As A, but from week 2 to week 4 maturation on culture medium comprising 5.0 μM PCIB and 40 μM ABA. • D: Maturation on medium comprising 2.5 μM PCIB and 40 μM ABA. • E: Maturation an medium comprising 5.0 μM PCIB and 40 μM ABA. Results

[4] = test system: newly established Abies nordmanniana embryogenic cell lines; experiment: Maturation in newly established Abies nordmanniana embryogenic cultures; assay type: cell-based; conditions: 8 weeks maturation, 40 μM ABA and 25 μM PCIB from week 2 to 4; cell lines less than 6 months old
Experimental: Approximately 50 cell lines were initiated from mature seeds in the same way as cell line G.78.14 (Example 1). The cultures were initiated and maintained on modified half strength BLG medium (See example 1). The cultures were less than 6 months old when they were subjected to maturation. The cultures were plated as described in Example 1. The cultures were subjected to two different maturation protocols. • 1) Maturation for 8 weeks on culture medium comprising 40 μM ABA and 5% PEG-4000. • 2) Maturation for as 1) but from week 2 to 4 the cultures were on culture medium comprising 40 μM ABA and 25 μM PCIB.

[5] = test system: Abies nordmanniana cell line G.35.8; experiment: Maturation of established Abies nordmanniana cell line G.35.8 (slowly proliferating); assay type: cell-based
Source text: as §1
The standard maturation medium (the control) is modified from the half strength BLG proliferation medium mentioned above. […] The choice of these three culture medium components is determined primarily by the conifer species in question. […] Similarly it is known that addition of PEG-4000 improves maturation. […]

[6] = test system: Abies nordmanniana cell line G.3.8; experiment: Maturation of established Abies nordmanniana cell line G.3.8 (fast proliferating); assay type: cell-based
Source text: as §1, §2, §3, §4
Two weeks after the last subculture, 4 grams of embryogenic cells was transferred to a 250 mL Flask (Blue cap) together with a magnet stirrer. 100 mL of liquid proliferation medium was added, and the suspension was stirred for 5 minutes at high speed on a magnet stirrer to obtain a homogenous suspension of cells and cell clumps. The culture was then pre-cultured on a gyrotory shaker (120 rpm) for one week at 24+/−1° C. in the dark. […]

[7] = test system: Picea sitchensis cell lines G.1.12, G.1.13; experiment: Maturation in embryogenic cultures of Picea sitchensis; assay type: cell-based; conditions: anti-auxin step as for Picea abies
Experimental: Two cell lines of Picea sitchensis, G.1.12, G.1.13, initiated from cotyledons from mature embryos were used for the present study. The cultures were initiated and pretreated on BMI-S1 medium as above, but with 1000 mg/L casein hydrolysate and 10 μM 2,4-D. Pretreatment, maturation medium and anti-auxin step as for Picea abies.

[8] = test system: mature somatic embryos of Abies nordmanniana; experiment: Germination of mature somatic embryos; conditions: embryos matured with PCIB in the maturation medium
Experimental: Well-developed mature embryos were collected for cold treatment after about 20 weeks of maturation. The isolated mature embryos were transferred to a nylon filter that was placed on a foam rubber pad in a high Petri dish. A wetted filter paper was placed in the bottom and in the lid of the Petri dish. The Petri dish was closed, sealed with two rounds of polyethylene film, wrapped with aluminium foil, and then placed at 5° C. in the dark for 4 weeks for cold treatment. After cold treatment, the nylon filter with the mature embryos was transferred to BGM-2 medium (Krogstrup et al, 1988). The BGM-2 medium included 20 g/L sucrose, 10 g/L activated charcoal (Merck 5411), and was galled with 3.5 g/L Phytagel (Gellan gum). The Petri dishes were placed in a growth room at 20° C. with a 16 hour photoperiod. After one week of germination, the nylon net was removed and the embryos were placed in direct contact with the medium. After two weeks of germination, embryos with a root were placed vertically with the root submerged in the medium. Later, the germinating embryos were transferred to soil and placed in a controlled greenhouse.

[9] = medium including both ABA and 25 μM PCIB
[10] = 25 μM PCIB + 40 μM ABA from week 4 to 8 of the 20 week maturation period

OC[C@H]1O[C@H](O[C@H]2[C@H](O)[C@@H](O)C(O)O[C@@H]2CO)[C@H](O)[C@@H](O)[C@@H]1O (mixture of isomers) [maltose]
development of mature embryos [1]: high numbers of embryos were produced | average fresh weight of mature embryos ([1]; treatment B: 45 g/L maltose during the entire maturation period): about 50 mg

CC(C)(Oc1ccc(Cl)cc1)C(=O)O [PCIB, p-Chlorophenoxyisobutyric acid]
proliferation during maturation ([2]; 25 μM PCIB, ABA excluded): proliferation was reduced | development of mature embryos ([2]; 25 μM PCIB, ABA excluded, 20 weeks, all tested cell lines): only few and clearly abnormal and precociously germinating embryos were developed | embryo morphology (abnormality) ([2]; higher concentrations than 25 μM of PCIB): the embryos developed asymmetrically with one major and one minor cotyledon (FIG. 4C) or with only one cotyledon | development of embryos during maturation [2, 9]: high numbers of embryos developed | proliferation during maturation [2, 9]: proliferation was reduced | embryo morphology (abnormality) ([2]; slowly proliferating cell lines, ABA and 25 μM PCIB for longer periods than 4 weeks): embryos with only two symmetric cotyledons developed | production of mature somatic embryos ([3]; cell line D.2.9, anti-auxin step (2.5 or 5.0 μM PCIB + 40 μM ABA)): a high number of mature somatic embryos are in turn produced | number of somatic embryos compared with no anti-auxin step ([3]; cell lines D.4.1 and D.7.1 (A-type), 2.5 or 5.0 μM PCIB + 40 μM ABA): produced higher numbers of somatic embryos | proliferation during maturation ([3]; cell lines D.4.1 and D.7.1, 2.5 or 5.0 μM PCIB + 40 μM ABA): reduce the proliferation during maturation | production of mature somatic embryos [4]: almost all cell lines produced high numbers of mature somatic embryos | number of well formed mature embryos ([5]; 25 μM PCIB + 40 μM ABA during the entire maturation period): about 15 embryos per Petri dish | number of well formed mature embryos [5, 10]: about 250 embryos per Petri dish | number of well-formed mature embryos ([6]; 25 μM PCIB + 40 μM ABA during the entire 20 week maturation period): about 125 embryos per Petri dish | number of well formed mature embryos [6, 10]: about 40 embryos per Petri dish | proliferation during maturation ([6]; 25 μM PCIB during the entire maturation period): strongly reduced | proliferation during maturation ([6]; 25 μM PCIB from week 4 to 8 of the 20 week maturation period): reduced slightly | general appearance of the cultures [7]: improved | proliferation during maturation [7]: proliferation was clearly reduced | embryos that developed both shoot and root on germination [8]: ~100%

O=C(O)c1cc(I)cc(I)c1I [TIBA, 2,3,5-tri-iodobenzoic acid]
development of mature embryos ([2]; TIBA 5 and 50 μM + 40 μM ABA, 20 weeks): only very few, and mostly abnormal, mature embryos developed | proliferation on the maturation medium ([2]; TIBA 5 and 50 μM + 40 μM ABA, all tested cell lines): strong reduction of the proliferation

Oc1cc(O)cc(O)c1 [phloroglucinol]
proliferation during maturation ([2]; phloroglucinol 0.4 mM + 40 μM ABA): proliferation was increased | development of well developed embryos ([2]; phloroglucinol 0.4 mM + 40 μM ABA, 20 weeks): no well developed embryos were found

OC[C@H]1O[C@@](CO)(O[C@H]2O[C@H](CO)[C@@H](O)[C@H](O)[C@H]2O)[C@@H](O)[C@@H]1O [sucrose]
development of mature embryos [1]: no well developed mature embryos were produced | size of the mature embryos ([1]; shift from maltose to medium including sucrose during the last two weeks of maturation (treatments C and D)): clear increase in the size of the mature embryos | reduction of the maturation period, treatment D compared to treatment B ([1]; shift to 45 g/L sucrose for the last two weeks): about four | average fresh weight of mature embryos ([1]; treatment D: 45 g/L maltose, shift to 45 g/L sucrose for the last two weeks): about 120 mg per embryo
